Legend:
[1] = test system: cotton aphid (Aphis gossypii); test: Test Example 3: pesticidal effect against cotton aphid by spray treatment (cucumber leaf disk, control value); assay type: in vivo; details: composition of the compound and clothianidin; spray over cucumber leaf disk, 25° C., 5 days; summary of Table 49
[2] = test system: brown planthopper (Nilaparvata lugens); test: Test Example 4: pesticidal effect against brown planthopper by foliage spray treatment of rice (control value); assay type: in vivo; details: foliage spray of rice seedlings, third-instar larvae, after 5 days
[3] = composition of the compound and clothianidin, summary of Table 50
[4] = composition of the compound and dinotefuran, summary of Table 54
[5] = composition of the compound and imidacloprid, summary of Table 53
[6] = composition of the compound and nitenpyram, summary of Table 51
[7] = composition of the compound and thiamethoxam, summary of Table 52

CC(C)(C)COc1cnccc1-c1nc2cc(C(F)(F)F)ccc2o1 [Compound 117, 2-[3-(2,2-dimethylpropoxy)pyridin-4-yl]-5-(trifluoromethyl)benzoxazole]
high pesticidal efficacy: pesticidal efficacy against cotton aphid (Aphis gossypii) [1] | pesticidal efficacy against brown planthopper (Nilaparvata lugens) [2, 3] | pesticidal efficacy against brown planthopper (Nilaparvata lugens) [2, 4] | pesticidal efficacy against brown planthopper (Nilaparvata lugens) [2, 5] | pesticidal efficacy against brown planthopper (Nilaparvata lugens) [2, 6] | pesticidal efficacy against brown planthopper (Nilaparvata lugens) [2, 7]

FC(F)(F)COc1cnccc1-c1nc2cc(C(F)(F)F)cnc2o1 [Compound 163]
high pesticidal efficacy: pesticidal efficacy against cotton aphid (Aphis gossypii) [1] | pesticidal efficacy against brown planthopper (Nilaparvata lugens) [2, 3] | pesticidal efficacy against brown planthopper (Nilaparvata lugens) [2, 4] | pesticidal efficacy against brown planthopper (Nilaparvata lugens) [2, 5] | pesticidal efficacy against brown planthopper (Nilaparvata lugens) [2, 6] | pesticidal efficacy against brown planthopper (Nilaparvata lugens) [2, 7]

FC(F)(F)COc1cnccc1-c1nc2cc(C(F)(F)F)ccc2o1 [Compound 39, 2-[3-(2,2,2-trifluoroethyl)oxypyridin-4-yl]-5-(trifluoromethyl)benzoxazole]
high pesticidal efficacy: pesticidal efficacy against cotton aphid (Aphis gossypii) [1] | pesticidal efficacy against brown planthopper (Nilaparvata lugens) [2, 3] | pesticidal efficacy against brown planthopper (Nilaparvata lugens) [2, 4] | pesticidal efficacy against brown planthopper (Nilaparvata lugens) [2, 5] | pesticidal efficacy against brown planthopper (Nilaparvata lugens) [2, 6] | pesticidal efficacy against brown planthopper (Nilaparvata lugens) [2, 7]

CC(C)COc1cnccc1-c1nc2cc(C(F)(F)F)ccc2o1 [Compound 116, 2-(3-isobutoxypyridin-4-yl)-5-(trifluoromethyl)benzoxazole]
high pesticidal efficacy: pesticidal efficacy against cotton aphid (Aphis gossypii) [1] | pesticidal efficacy against brown planthopper (Nilaparvata lugens) [2, 3] | pesticidal efficacy against brown planthopper (Nilaparvata lugens) [2, 4] | pesticidal efficacy against brown planthopper (Nilaparvata lugens) [2, 5] | pesticidal efficacy against brown planthopper (Nilaparvata lugens) [2, 6] | pesticidal efficacy against brown planthopper (Nilaparvata lugens) [2, 7]

Reference: patent US20120245159A1, “COMPOSITION AND METHOD FOR CONTROLLING ARTHROPOD PESTS” (SUMITOMO CHEMICAL COMPANY, LIMITED, priority 2009, published 2012)
